Test results taken from patent US20080318861A1, “Mucosal Delivery of Stabilized Formulations of Exendin” (NASTECH PHARMACEUTICAL COMPANY INC., priority 2005, published 2008).

Assays:
[1] = system: normal, human-derived tracheal/bronchial epithelial cells (EpiAirway Tissue Model); test: MTT cell viability assay; format: cell-based; details: for toxicity / cell viability in excipient screening (in words): cell viability as measured by LDH and MTT, exenatide formulation containing the named excipient
Text: The extraction plate was covered and scaled to reduce evaporation of extractant.

[2] = Physical stability by clarity (absorbance at 630 nm) on storage at 5° C.; details: stored at 5° C. (refrigerated) for at least two weeks
Procedure: In vitro testing of exenatide formulations included a preservatives screen. Physical stability after storage at 5° C. was measured for all formulations tested in vitro. Exenatide formulations were placed in 1 cc glass vials and closed with trifoil lined caps and stored at 5° C. for at least two weeks. Physical stability was monitored by measuring clarity. Clarity of a formulation was determined by measuring absorbance at 630 nm, using the μQuant optical density plate reader for each formulation at days 0, 7, and 14. A 200 μL volume from each vial was placed in a 96-well plate and read against a background of water.
Varying concentrations of sodium benzoate (NaBz) and benzalkonium chloride (BAK), were screened for their effect on physical stability of the three formulations used in in vivo studies. Sodium benzoate was added at 1.0, 2.5, and 5.0 mg/mL, while BAK was tested at 0.2, 1.0, 2.0, and 4.0 mg/mL. To prepare the samples, varying amounts of stock solutions of the two preservatives were added to the three prepared formulations dosed in the PK study. […] The resulting formulations were stored at 5° C. for 5.5 weeks. Physical stability was monitored by measuring the absorbance of the solution at 630 nm.
Sodium benzoate was added at concentrations of 1.0 to 5.0 mg/mL, while BAK was tested at 0.05, 0.075, and 0.1 mg/mL. To prepare the samples, varying amounts of stock solutions of the two preservatives were added to the formulations prepared in the PK study and the pH was adjusted to 4.5 with HCl as necessary. The resulting formulations were stored at 5° C. for 4 weeks. Physical stability was monitored by measuring the absorbance of the solution at […].
The second formulation lacked any buffer to test the effect of the buffer itself on physical stability.

[3] = system: epithelial tissue barrier (EpiAirway Tissue Model); test: In vitro permeation of exenatide across the cellular barrier (EIA analysis); details: for exenatide permeation (in words): compared with AKL-225-126-2 or control without enhancers
Text: Initial studies focused on optimizing the concentrations of Me-β-CD, DDPC, EDTA, and gelatin to enhance exenatide permeation across an epithelial tissue layer.
A second round of studies, series B, systematically screened several excipients for their potential to enhance exenatide permeation to a greater degree than the Me-β-CD, DDPC, EDTA, and gelatin combinations. […] Initially, each excipient (except for those classified as “generally regarded as safe” (GRAS) by the FDA, recombinant gelatins, and PN159), was tested at two concentrations or in combination with Me-β-CD, DDPC, or EDTA. As with series A formulations, each formulation was evaluated for exenatide permeation, ability to reduce TER while not adversely affecting cell viability, and formulation physical stability.

[4] = system: normal, human-derived tracheal/bronchial epithelial cells (EpiAirway Tissue Model); test: Transepithelial electrical resistance (TER) in the in vitro nasal epithelial model; format: cell-based; details: 60 min exposure
Text: A cell line from MatTek Corp. (Ashland, Mass.) was used as the source of normal, human-derived tracheal/bronchial epithelial cells (EpiAirway™ Tissue Model). […] The cells were provided as inserts grown to confluence on Millipore Milicell-CM filters comprised of transparent hydrophilic Teflon (PTFE). […] TER measurements were accomplished using the Endohm-12 Tissue Resistance Measurement Chamber connected to the EVOM Epithelial Voltohmmeter (World Precision Instruments, Sarasota, Fla.) with the electrode leads. The electrodes and a tissue culture blank insert were equilibrated for at least twenty (20) minutes in phosphate buffered solution with the power off prior to checking calibration. The background resistance was measured with 1.5 mL media in the Endohm tissue chamber and 300 μL media in a blank Millicell-CM insert. […] The background resistance of the blank insert was 5-12 ohms.
TER was measured before and after the sixty (60) minute incubation. […] After the 60 minute incubation with test samples, 200 μL of fresh media was gently added to the apical surface of each test sample insert and final TER was measured for each insert. […] Resistance is expressed as follows: (resistance measured−blank)×0.6 cm^2.

[5] = system: normal, human-derived tracheal/bronchial epithelial cells (EpiAirway Tissue Model); test: Lactate dehydrogenase (LDH) cytotoxicity assay; format: cell-based
Procedure: The amount of cell death was assayed by measuring the loss of lactate dehydrogenase (LDH) from the cells using a CytoTox 96 Cytoxicity Assay Kit (Promega Corp., Madison, Wis.). Fresh, cell-free culture medium was used as a blank. 50 μl harvested media (stored at 4° C.) was loaded in a 96-well plate. Substrate Solution (50 μl) was added to each well and the plates were incubated for thirty (30) minutes at ambient temperature in the dark. Following incubation, 50 μl of Stop Solution was added to each well and the reaction was monitored at A490 using an optical density plate reader. Media alone applied to the apical side served as a negative control while triton X served as the positive control for the LDH assay.

Compound	toxicity / cell viability in excipient screening (in words) [1]	physical stability (clarity) [2]	exenatide permeation (in words) [3]	other results
CCCCCCCCO[C@@H]1O[C@H](CO)[C@H](O)[C@H](O)[C@H]1O [galactopyranoside, n-Octyl-β-D-galactopyranoside]	toxic at 10 mg/mL	–	–	–
CCCCCCCCC(=O)OC[C@H](COP(=O)([O-])OCC[N+](C)(C)C)OC(=O)CCCCCCCC [dinonanoyl glycero phosphatidylcholine]	–	becoming turbid in less than two weeks at refrigerated conditions	–	–
C[C@H](CCC(=O)NCC(=O)[O-])[C@H]1CC[C@H]2[C@@H]3[C@H](O)C[C@@H]4C[C@H](O)CC[C@]4(C)[C@H]3C[C@H](O)[C@]12C.[Na+] [Sodium glycocholate, sodium glycocholate]	–	physically instable at high concentrations	–	–
CCCCCCCCCCCCCCCC(=O)OC(CC(=O)[O-])C[N+](C)(C)C (racemic) [Palmitoyl-DL-carnitine, palmitoyl-DL-carnitine]	toxic at high concentrations	physically instable without Me-β-CD	–	–
CCCCCCCC(=O)[O-].[Na+] [sodium caprylate]	toxic at 20 mM with Me-β-CD and EDTA	physical instability in the absence of Me-β-CD	failed to enhance exenatide permeation to any extent alone or with permeation enhancers	–
triton X	–	–	–	TER reduction (in words) [4]: lowest possible TER; cytotoxicity as measured by % MTT (in words) [1]: significant toxicity; cytotoxicity as measured by % LDH (in words) [5]: significant toxicity
Tween-80	–	–	failed to enhance exenatide permeation to the same extent as formulation AKL-225-126-2	–
CCO [ethanol]	–	–	did not enhance exenatide permeation	–
CCCCCCCCCC(=O)[O-].[Na+] [sodium caprate]	low cell viability at 50 mM alone	physical instability in the absence of Me-β-CD	–	–
dimethyl-β-cyclodextrin [DMe-β-CD]	more toxic to the cells than Me-β-CD	–	–	fold increase in exenatide permeation over AKL-225-126-2 ([3]; full dose volume (100 µL)): 1.5 fold
hydroxypropyl-β-cyclodextrin [H-β-CD]	–	–	did not increase permeation significantly	–
CC(O)CO (stereo not shown) [propylene glycol]	–	–	failed to enhance permeation at all	–
OC[C@H]1O[C@@H]2O[C@H]3[C@H](O)[C@@H](O)[C@@H](O[C@H]4[C@H](O)[C@@H](O)[C@@H](O[C@H]5[C@H](O)[C@@H](O)[C@@H](O[C@H]6[C@H](O)[C@@H](O)[C@@H](O[C@H]7[C@H](O)[C@@H](O)[C@@H](O[C@H]8[C@H](O)[C@@H](O)[C@@H](O[C@H]1[C@H](O)[C@H]2O)O[C@@H]8CO)O[C@@H]7CO)O[C@@H]6CO)O[C@@H]5CO)O[C@@H]4CO)O[C@@H]3CO [β-cyclodextrin]	–	became turbid at refrigerated conditions	–	–
CCCCCCCC/C=C\CCCCCCCC(=O)O [oleic acid]	lowered cell viability	–	–	–
O=C(O)CN(CCN(CC(=O)O)CC(=O)O)CC(=O)O [EDTA]	cell viability began to decrease	–	–	–
